The values that follow come from patent US20230364025A1, “PROTEIN-RELEASE SYSTEM FOR SUSTAINED RELEASE OF PROTEINS” (THE GOVERNING COUNCIL OF THE UNIVERSITY OF TORONTO, priority 2022, published 2023).

Data set [1] has as its system bevacizumab. In words: Bio-layer interferometry binding of immobilized Fc-ligands to bevacizumab. The following applies: biotinylated peptide immobilized at 100 nM on SAX biosensors. How it is done:
(§1) Binding kinetic measurements were performed on the Octet RED96 system (ForteBio, CA) using single-use high-precision streptavidin biosensors (SAX). Assay buffer was defined as 1×PBS comprising 0.05% Tween-20 (PBST). Biotinylated peptides FcL-1 and FcL-2 were immobilized at 100 nM. Non-specific interactions were minimized by including a blocking step using SuperBlock prior to each baseline response. […] A double-referencing experiment was used to assess the binding interactions of Fc-noggin to both peptides. Peptides were immobilized in sample sensors while reference sensors were dipped in assay buffer. For association, the sample and reference sensors were dipped into Fc-noggin. All experiments included one biosensor dipped in assay buffer during association for background normalization.
(§2) Affinity interactions of the modified peptide ligands to different antibodies were evaluated via bio-layer interferometry. […] Dissociation constants between the binding pairs were determined using the Octet Data Analysis Software. […] A heterogeneous 2:1 ligand binding model was used for the evaluation of the equilibrium dissociation constants of the chosen peptide ligands to anti-sFRP2 or Fc-Noggin.

Data set [2] has as its system panitumumab. In words: Bio-layer interferometry binding of immobilized Fc-ligands to panitumumab. The settings on record: biotinylated peptide immobilized at 100 nM on SAX biosensors. Here is the method: as §1, §2
Data set [3] concerns anti-sFRP2. In words: Bio-layer interferometry binding of immobilized Fc-ligands to anti-sFRP2. The settings on record: biotinylated peptide immobilized at 100 nM on SAX biosensors. How it is done:
as §1, §2

Data set [4] deals with T1, Fc-Noggin (Mus musculus, UniProt P97466).
T1 construct: Fc (immunoglobulin Fc region); purchased R&D systems
The experiment in a line: Bio-layer interferometry binding of immobilized Fc-ligands to Fc-Noggin. The following applies: biotinylated peptide immobilized at 100 nM on SAX biosensors. Here is the method: as §1, §2

For data set [5], the target named is hlgG1 (Homo sapiens, UniProt P01857). The settings on record: interacting with hlgG1; Reese et al., 2020; cited from earlier work.
A short description of data set [6]: In vitro controlled release of proteins from HAKT-oxime gels, quantified by ELISA. The settings on record: for cumulative release: after 2 days. It is filed as physicochemical.
Description: HAKT and HAKT-FcL-1 were dissolved in PBS to yield a final HA content of 12.5 mg/mL with 0 or 100 molar excesses of peptide to protein and mixed with PEGOA4 at 80 mol %. […] Release media was defined as 1×PBS comprising 0.1 wt % bovine serum albumin and Roche cOmplete™ Protease Inhibitor Cocktail (1 tablet/ 10 mL, Roche, Switzerland). Protein release was evaluated by incubating HAKT-oxime gels with 400 μL of release media on an orbital shaker at 37° C. Supernatants were collected and replaced with fresh release media after 2 h, 6 h, 1 d, 2 d, 3 d, 5 d, and 7 d. HAKT-oxime hydrogels were digested after the last time point using 500 IU/mL hyaluronidase in 400 μL of PBS. Fc-Noggin concentrations were evaluated using a mouse Noggin ELISA (RayBiotech).
Subsequently, the wells were washed with 200 μL TPBS (1× PBS with 0.05% Tween 20) four times and blotted dry on paper towels. Standard and analyte samples were added to each well (100 μL) and incubated for 2.5 h at room temperature on an orbital shaker. The wells were then washed as previously described and blotted dry. […] 100 μL of anti-Fc antibody diluted at appropriate concentrations was added to each well and incubated for 1.5 h at room temperature. A solution of 3,3′,5,5′-Tetramethylbenzidine (TMB) was added (100 ul) to each well. […] Then, a stop solution comprising 2N H2SO4 (50 μL) was added to each well and the absorbance was measured at 450 nm. Protein concentration was determined using the linear range in the standard curve. Protein samples were diluted to fit within the linear range.

T1 sequence (P97466 with tags, fused parts or gaps): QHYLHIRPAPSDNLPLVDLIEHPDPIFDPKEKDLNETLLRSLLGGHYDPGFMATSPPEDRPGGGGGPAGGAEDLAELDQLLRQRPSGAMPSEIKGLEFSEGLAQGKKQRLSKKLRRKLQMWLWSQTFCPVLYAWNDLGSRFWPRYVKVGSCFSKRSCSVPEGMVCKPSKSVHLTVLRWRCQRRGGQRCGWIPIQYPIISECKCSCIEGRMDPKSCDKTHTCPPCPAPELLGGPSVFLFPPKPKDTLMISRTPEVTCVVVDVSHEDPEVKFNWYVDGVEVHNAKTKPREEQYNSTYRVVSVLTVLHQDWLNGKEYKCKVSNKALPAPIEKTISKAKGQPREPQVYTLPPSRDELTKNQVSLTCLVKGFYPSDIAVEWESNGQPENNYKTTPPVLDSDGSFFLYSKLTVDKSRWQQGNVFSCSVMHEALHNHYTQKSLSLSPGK
Sequence of hlgG1 (P01857 1-328 limits assumed): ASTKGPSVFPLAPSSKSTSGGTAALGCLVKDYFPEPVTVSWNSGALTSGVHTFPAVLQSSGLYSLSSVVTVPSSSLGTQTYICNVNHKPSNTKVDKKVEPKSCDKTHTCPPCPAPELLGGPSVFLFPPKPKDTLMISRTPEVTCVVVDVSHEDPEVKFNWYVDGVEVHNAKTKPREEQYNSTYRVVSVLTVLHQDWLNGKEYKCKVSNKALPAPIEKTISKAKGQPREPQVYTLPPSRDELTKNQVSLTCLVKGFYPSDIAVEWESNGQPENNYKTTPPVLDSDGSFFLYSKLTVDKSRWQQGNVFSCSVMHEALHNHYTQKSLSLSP

Regarding `CC(C)[C@H](NC(=O)[C@H](Cc1c[nH]c2ccccc12)NC(=O)CNC(=O)[C@H](CCCNC(=N)N)NC(=O)[C@H](Cc1c[nH]c2ccccc12)NC(=O)[C@@H](N)Cc1c[nH]cn1)C(=O)NCC(=O)N[C@@H](C)C(=O)N[C@@H](CCCCNC(=O)CCCC[C@@H]1SC[C@@H]2NC(=O)N[C@@H]21)C(=O)N[C@@H](CO)C(=O)N[C@@H](CCCCN)C(=O)NCC(=O)O` [FcL1], in data set [1], the binding to bevacizumab entry is given as “shown to bind”. In addition, the binding to panitumumab entry in data set [2] is on record as “shown to bind”. For the same molecule, the “binding to anti-sFRP2” value in data set [3] was “shown to bind”. Also, the “binding to Fc-Noggin” value in data set [4] was “shown to bind”.
On to (CFHH)2KGAKSKG [FcL2], for which the binding to bevacizumab result in data set [1] was “demonstrated binding only to anti-sFRP2”. For the same molecule, the binding to panitumumab entry in data set [2] is “demonstrated binding only to anti-sFRP2”. Besides, the “binding to anti-sFRP2” value in data set [3] is listed as “demonstrated binding only to anti-sFRP2”. Besides, the “binding to Fc-Noggin” value in data set [4] is reported as “demonstrated binding only to anti-sFRP2”.
As for HWRWGV, the Kd in data set [5] was 14.2 µM.
On to “bevacizumab: antibody against VEGF; Research Grade Bevacizumab Biosimilar”, for which the “controlled release from HAKT-gel” value in data set [6] (FcL-1 at 100-fold molar excess vs no peptide, 37° C., 7 days) was “confirmed controlled release”. Moreover, the results for the cumulative release in data set [6] (from HAKT-FcL1-oxime) and in data set [6] (from HAKT-oxime (no peptide)) were 60% and “approximately 100%”, respectively.
